We go through twelve molecules from US10513521B2, “Compositions and methods for inhibiting BMP” (The Brigham and Women's Hospital, Inc., priority 2014, dated 2019).

Molecules are shown by their SMILES. Substitutions are numbered along the chain they refer to.

One assay has as its target T1, ALK5 (Homo sapiens, UniProt P36897).
T1 sequence (P36897 34-503): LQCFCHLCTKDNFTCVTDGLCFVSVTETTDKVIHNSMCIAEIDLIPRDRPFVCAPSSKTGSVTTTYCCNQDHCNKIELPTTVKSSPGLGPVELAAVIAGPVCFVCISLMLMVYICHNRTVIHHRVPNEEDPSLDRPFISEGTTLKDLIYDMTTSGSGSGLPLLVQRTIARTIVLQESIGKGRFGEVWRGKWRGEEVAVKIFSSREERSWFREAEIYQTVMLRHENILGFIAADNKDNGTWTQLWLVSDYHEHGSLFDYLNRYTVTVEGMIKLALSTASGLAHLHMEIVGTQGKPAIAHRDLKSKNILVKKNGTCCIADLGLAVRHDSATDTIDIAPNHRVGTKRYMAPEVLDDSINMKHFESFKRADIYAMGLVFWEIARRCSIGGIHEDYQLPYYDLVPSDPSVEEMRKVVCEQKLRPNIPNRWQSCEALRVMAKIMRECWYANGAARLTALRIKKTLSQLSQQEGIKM
Briefly: TR-FRET enzymatic ALK kinase assay, ALK5. A general note: Time-resolved FRET reads energy transfer from a long-lived donor to a nearby acceptor.

In assay [1] the target is T2, ALK2 (Homo sapiens, UniProt Q04771).
T2 sequence (Q04771 21-509): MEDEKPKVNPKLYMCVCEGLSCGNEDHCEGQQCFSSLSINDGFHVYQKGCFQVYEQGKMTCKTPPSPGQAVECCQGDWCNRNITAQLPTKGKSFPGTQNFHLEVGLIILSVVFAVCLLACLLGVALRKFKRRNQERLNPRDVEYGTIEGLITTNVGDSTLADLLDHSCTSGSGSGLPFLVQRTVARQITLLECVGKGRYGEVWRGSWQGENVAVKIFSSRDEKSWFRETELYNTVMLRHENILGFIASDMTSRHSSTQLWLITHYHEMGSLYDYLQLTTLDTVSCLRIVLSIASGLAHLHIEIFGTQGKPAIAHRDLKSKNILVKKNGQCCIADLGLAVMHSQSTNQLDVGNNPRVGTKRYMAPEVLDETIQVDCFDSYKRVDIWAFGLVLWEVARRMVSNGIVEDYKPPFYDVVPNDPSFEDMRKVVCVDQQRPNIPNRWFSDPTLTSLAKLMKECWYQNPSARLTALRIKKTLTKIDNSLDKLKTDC
Briefly: TR-FRET enzymatic ALK kinase assay, ALK2.
Protocol: (§1) Briefly, the ALKs enzymatic assay was initiated by dispense 2.5 μl enzyme in 1× kinase reaction buffer. The assay plate was then added with compounds followed by incubation at room temperature for 10 minutes. Then 2.5 μl/well substrate was added.

Assay [2] deals with T3, ALK2 (Mus musculus, UniProt P37172).
T3 construct: The C2C12 cell line was selected for the measurement of ALK2 activity using BMP6 as the agonist; host or cells: C2C12
T3 sequence (P37172 21-509): T2 sequence (Q04771 21-509) with M1V, P10Q, L121I, D162E, P310S
Briefly: HTRF pSMAD1 cell-based ALK2 assay (C2C12 cells, BMP6 as agonist). The settings on record: cell-based assay, BMP6; read-out: Cell IC50 BMP6. The gist of the method:
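Cells pre-starved, plated in 0.1% FBS medium for 4 h, compound added for 30 min, then stimulated 30 min with BMP9 (BAOEC) or BMP6 (C2C12). Phospho-SMAD1 measured by HTRF after overnight room-temperature detection incubation.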

Another assay addresses ALK6 (Homo sapiens, UniProt O00238). Briefly: TR-FRET enzymatic ALK kinase assay, ALK6.
In another assay the target is ALK3 (Homo sapiens, UniProt P36894). Briefly: TR-FRET enzymatic ALK kinase assay, ALK3.
In the next assay the target is T4, ALK4 (Homo sapiens, UniProt P36896).
T4 sequence (P36896 24-505): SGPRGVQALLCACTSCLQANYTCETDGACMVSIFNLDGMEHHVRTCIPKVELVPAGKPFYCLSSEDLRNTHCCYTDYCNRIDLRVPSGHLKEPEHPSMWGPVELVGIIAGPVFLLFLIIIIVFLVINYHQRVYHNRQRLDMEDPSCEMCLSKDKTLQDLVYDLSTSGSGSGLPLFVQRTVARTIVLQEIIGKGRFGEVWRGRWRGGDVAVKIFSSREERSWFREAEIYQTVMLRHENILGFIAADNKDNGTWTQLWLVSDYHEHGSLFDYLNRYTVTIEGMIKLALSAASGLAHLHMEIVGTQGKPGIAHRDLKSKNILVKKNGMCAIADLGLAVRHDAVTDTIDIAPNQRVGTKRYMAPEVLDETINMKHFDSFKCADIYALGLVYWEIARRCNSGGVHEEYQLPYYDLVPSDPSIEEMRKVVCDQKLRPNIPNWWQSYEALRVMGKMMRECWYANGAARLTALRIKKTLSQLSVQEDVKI
Briefly: TR-FRET enzymatic ALK kinase assay, ALK4.

Assay [3] is described as follows: Cell-based assay, TGFb1 (Cell IC50).
The target of the next assay is ALK1 (Homo sapiens, UniProt P37023). Briefly: TR-FRET enzymatic ALK kinase assay, ALK1.
ALK1, sequence (P37023 22-503): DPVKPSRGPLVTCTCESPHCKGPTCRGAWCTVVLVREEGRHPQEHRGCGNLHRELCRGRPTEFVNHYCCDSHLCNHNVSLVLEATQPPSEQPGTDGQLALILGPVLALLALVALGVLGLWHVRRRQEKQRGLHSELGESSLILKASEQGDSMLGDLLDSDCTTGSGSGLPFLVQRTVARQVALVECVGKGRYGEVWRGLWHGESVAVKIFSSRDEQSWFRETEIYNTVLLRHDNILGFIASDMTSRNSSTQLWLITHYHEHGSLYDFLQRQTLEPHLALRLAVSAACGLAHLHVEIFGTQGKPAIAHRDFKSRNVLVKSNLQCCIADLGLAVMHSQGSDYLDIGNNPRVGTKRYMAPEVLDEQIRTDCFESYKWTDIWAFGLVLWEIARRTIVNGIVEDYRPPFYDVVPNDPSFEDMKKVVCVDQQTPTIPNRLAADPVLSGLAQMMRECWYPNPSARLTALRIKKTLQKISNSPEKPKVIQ

ALK3, sequence (P36894 24-532): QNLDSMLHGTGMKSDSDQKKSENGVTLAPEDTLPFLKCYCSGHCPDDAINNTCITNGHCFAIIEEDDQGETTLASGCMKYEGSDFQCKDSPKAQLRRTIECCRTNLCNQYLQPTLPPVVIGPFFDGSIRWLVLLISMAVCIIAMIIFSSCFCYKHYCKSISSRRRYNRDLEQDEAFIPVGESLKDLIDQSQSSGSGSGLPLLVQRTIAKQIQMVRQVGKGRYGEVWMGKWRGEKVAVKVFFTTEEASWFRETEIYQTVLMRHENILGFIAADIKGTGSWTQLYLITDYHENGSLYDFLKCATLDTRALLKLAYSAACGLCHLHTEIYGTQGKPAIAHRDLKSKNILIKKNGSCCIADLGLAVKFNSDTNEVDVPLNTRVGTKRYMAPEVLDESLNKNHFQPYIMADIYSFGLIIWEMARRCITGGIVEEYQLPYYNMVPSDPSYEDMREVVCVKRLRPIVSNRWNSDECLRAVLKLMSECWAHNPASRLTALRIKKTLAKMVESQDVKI
ALK6, sequence (O00238 14-502): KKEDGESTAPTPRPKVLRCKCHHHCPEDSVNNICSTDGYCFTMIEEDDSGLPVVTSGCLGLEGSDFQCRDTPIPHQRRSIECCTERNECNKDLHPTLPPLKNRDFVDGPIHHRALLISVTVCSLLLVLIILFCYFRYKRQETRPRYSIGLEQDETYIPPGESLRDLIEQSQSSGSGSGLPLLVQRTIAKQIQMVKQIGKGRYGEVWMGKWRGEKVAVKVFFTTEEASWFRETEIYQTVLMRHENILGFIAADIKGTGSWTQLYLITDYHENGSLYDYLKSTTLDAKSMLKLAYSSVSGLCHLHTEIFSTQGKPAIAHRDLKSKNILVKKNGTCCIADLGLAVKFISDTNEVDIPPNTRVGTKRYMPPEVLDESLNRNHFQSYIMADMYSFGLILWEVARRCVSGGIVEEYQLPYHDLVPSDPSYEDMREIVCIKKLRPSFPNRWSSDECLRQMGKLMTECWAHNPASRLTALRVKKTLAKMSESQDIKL
Protocol for ALK1: as §1
Protocol for ALK3: as §1
Protocol for ALK4: as §1
Protocol for ALK5: Six ALK kinase enzyme assays were developed for determination of compound activities on ALK1, ALK2, ALK3, ALK4, ALK5 and ALK6.
as §1
Protocol for ALK6: as §1

The term IC50 denotes the concentration that gives 50% inhibition. On to `CC(C)(O)c1cccc(-c2cnn3cc(-c4ccc(C5CCNCC5)cc4)cnc23)c1` [Compound 100, 2-(3-(6-(4-(piperidin-4-yl)phenyl)pyrazolo[1,5-a]pyrimidin-3-yl)phenyl)propan-2-ol], for which the IC50 is more than 10 µM on ALK5; 0.039 µM against ALK2 [1]; 0.477 µM at ALK2 [2]; more than 10 µM against ALK6; 3.3 µM against ALK3; more than 10 µM at ALK4. Further, the IC50 was more than 100 µM in assay [3] and 0.12 µM against ALK1.
For the molecule `CNC(=O)c1cccc2c(-c3cnn4cc(-c5ccc(N6CCNCC6)cc5)cnc34)cccc12` [Compound 7, N-methyl-5-(6-(4-(piperazin-1-yl)phenyl)pyrazolo[1,5-a]pyrimidin-3-yl)-1-naphthamide], the IC50 on ALK2 [1] was 0.226 µM; at ALK2 [2] it was 0.283 µM; against ALK6, 0.334 µM; at ALK3, 0.598 µM; against ALK4, 30.9 µM; in assay [3], 2.93 µM. Moreover, the 50% inhibitory concentration (IC50) against ALK1 came out at 1.59 µM.
For the molecule `N=C(N)c1ccc(-c2cnn3cc(-c4ccc(N5CCNCC5)cc4)cnc23)c2ccccc12` [Compound 16, 4-(6-(4-(piperazin-1-yl)phenyl)pyrazolo[1,5-a]pyrimidin-3-yl)-1-naphthimidamide], the IC50 amounted to 0.084 µM on ALK2 [1]; 0.89 µM on ALK2 [2]; 74.8 µM against ALK6; 4.93 µM at ALK3; 73.9 µM on ALK4; 13.5 µM in assay [3]. Further, at ALK1, 0.405 µM corresponded to half-maximal inhibition (IC50).
As for `NC(=O)c1cccc2c(-c3cnn4cc(-c5ccc(N6C[C@@H]7C[C@H]6CN7)cc5)cnc34)cccc12` [Compound 12, 5-(6-(4-((1S,4S)-2,5-diazabicyclo[2.2.1]heptan-2-yl)phenyl)pyrazolo[1,5-a]pyrimidin-3-yl)-1-naphthamide], the IC50 worked out at 21.5 µM against ALK5; 0.0083 µM against ALK2 [1]; 0.068 µM on ALK2 [2]; 0.26 µM against ALK6; 0.059 µM against ALK3; 2.81 µM against ALK4. Besides, the IC50 was 1.24 µM in assay [3] and 0.034 µM against ALK1.
With `CS(=O)(=O)c1cccc(-c2cnn3cc(-c4ccc(CCN5CCCCC5)cc4)cnc23)c1` [Compound 86, 3-(3-(methylsulfonyl)phenyl)-6-(4-(2-(piperidin-1-yl)ethyl)phenyl)pyrazolo[1,5-a]pyrimidine], the IC50 against ALK5 was more than 10 µM; on ALK2 [1] it was 0.037 µM; on ALK2 [2] it was 0.419 µM; against ALK6, more than 10 µM; against ALK3 it was 1.5 µM; against ALK4 it was more than 10 µM. For the same molecule, the IC50 in assay [3] worked out at 57 µM; on ALK1 it was 0.17 µM.
With `C[C@@H]1CNC[C@H](C)N1c1ccc(-c2cnc3c(-c4ccc(N)c(S(N)(=O)=O)c4)cnn3c2)cc1` [Compound 85, 2-amino-5-(6-(4-((2R,6S)-2,6-dimethylpiperazin-1-yl)phenyl)pyrazolo[1,5-a]pyrimidin-3-yl)benzenesulfonamide], the IC50 on ALK5 is more than 10 µM; on ALK2 [1], 0.039 µM; on ALK2 [2] it was 0.11 µM; on ALK6, more than 10 µM; on ALK3, 1.7 µM; against ALK4, 7.3 µM. The IC50 is 5.57 µM in assay [3] and 0.12 µM against ALK1.
With `NC(=O)c1ccc(-c2cnn3cc(-c4ccc(N5C[C@@H]6C[C@H]5CN6)cc4)cnc23)c2ccccc12` [Compound 11, 4-(6-(4-((1 S,4S)-2,5-diazabicyclo[2.2.1]heptan-2-yl)phenyl)pyrazolo[1,5-a]pyrimidin-3-yl)-1-naphthamide], the IC50 on ALK5 came to 7.02 µM; against ALK2 [1] it was 0.007 µM; at ALK2 [2] it was 0.055 µM; at ALK6 it was 2.06 µM; against ALK3, 0.112 µM; against ALK4 it was 2.99 µM. Moreover, the IC50 is 0.645 µM in assay [3] and 0.03 µM on ALK1.
On to `O=C(O)c1ccc(-c2cnn3cc(-c4ccc(N5CCNCC5)cc4)cnc23)c2ccccc12` [Compound 1, 4-(6-(4-(piperazin-1-yl)phenyl)pyrazolo[1,5-a]pyrimidin-3-yl)-1-naphthoic acid], for which the half-inhibitory concentration (IC50) on ALK2 [1] came to 0.037 µM; on ALK2 [2], 8.66 µM; against ALK6 it was 1.74 µM; at ALK3, 0.984 µM; in assay [3] it was 100 µM; at ALK1, 0.186 µM.
For `O=C(O)c1cccc2c(-c3cnn4cc(-c5ccc(N6CCNCC6)cc5)cnc34)cccc12` [Compound 5, 5-(6-(4-(piperazin-1-yl)phenyl)pyrazolo[1,5-a]pyrimidin-3-yl)-1-naphthoic acid], the IC50 turned out to be 0.01 µM at ALK2 [1]; 100 µM on ALK2 [2]; 0.017 µM at ALK6; 0.017 µM on ALK3; 100 µM in assay [3]; 0.045 µM against ALK1.
For the molecule `N=C(N)c1ccc(-c2cnn3cc(-c4ccc(N5CCNCC5)cc4)cnc23)cc1` [Compound 14, 4-(6-(4-(piperazin-1-yl)phenyl)pyrazolo[1,5-a]pyrimidin-3-yl)benzimidamide], the IC50 on ALK5 was 15.6 µM; on ALK2 [1] it was 0.916 µM; on ALK2 [2] it was 4.2 µM; at ALK6, 16.9 µM; at ALK3 it was 17.6 µM; in assay [3], 44.1 µM. Also, the IC50 on ALK1 amounted to 3.06 µM.
In the case of `CN(C)C(=O)c1cccc2c(-c3cnn4cc(-c5ccc(N6CCNCC6)cc5)cnc34)cccc12` [Compound 8, N,N-dimethyl-5-(6-(4-(piperazin-1-yl)phenyl)pyrazolo[1,5-a]pyrimidin-3-yl)-1-naphthamide], the IC50 against ALK2 [1] came out at 6.56 µM; at ALK2 [2] it was 2.07 µM; at ALK6, 20.7 µM; against ALK3 it was 10.8 µM; in assay [3] it was 5.54 µM; against ALK1, 8.08 µM.
As for `N/C(=N/O)c1ccc(-c2cnn3cc(-c4ccc(N5CCNCC5)cc4)cnc23)cc1` [Compound 13, N′-hydroxy-4-(6-(4-(piperazin-1-yl)phenyl)pyrazolo[1,5-a]pyrimidin-3-yl)benzimidamide], the IC50 against ALK2 [1] came to 0.038 µM; on ALK2 [2], 0.38 µM; at ALK3, 0.88 µM; in assay [3] it was 6.82 µM; against ALK1, 0.276 µM.
